The record followed here is patent US10676431B2, “Phenylpyrrolidinone formyl peptide 2 receptor agonists” (BRISTOL-MYERS SQUIBB COMPANY, priority 2018, dated 2020).

One assay deals with human FPR2 (Homo sapiens (Human), UniProt P25090). In words: FPR2 cyclic adenosine monophosphate (cAMP) assay. To be noted: CHO cells overexpressing human FPR2; forskolin 5 μM, IBMX 200 μM; inhibition of cAMP production, HTRF; read-out: hFPR2 cAMP2 EC50. The class given is cell-based. The procedure:
(§1) FPR2 and FPR1 Cyclic Adenosine Monophosphate (cAMP) Assays. A mixture of forskolin (5 μM final for FPR2 or 10 μM final for FPR1) and IBMX (200 μM final) were added to 384-well Proxiplates (Perkin-Elmer) pre-dotted with test compounds in DMSO (1% final) at final concentrations in the range of 0.020 nM to 100 μM. Chinese Hamster Ovary cells (CHO) overexpressing human FPR1 or human FPR2 receptors were cultured in F-12 (Ham's) medium supplemented with 10% qualified FBS, 250 μg/ml zeocin and 300 μg/ml hygromycin (Life Technologies). Reactions were initiated by adding 2,000 human FPR2 cells per well or 4,000 human FPR1 cells per well in Dulbecco's PBS (with calcium and magnesium) (Life Technologies) supplemented with 0.1% BSA (Perkin-Elmer). The reaction mixtures were incubated for 30 min at room temperature. The level of intracellular cAMP was determined using the HTRF HiRange cAMP assay reagent kit (Cisbio) according to manufacturer's instruction. Solutions of cryptate conjugated anti-cAMP and d2 fluorophore-labelled cAMP were made in a supplied lysis buffer separately. Upon completion of the reaction, the cells were lysed with equal volume of the d2-cAMP solution and anti-cAMP solution. After a 1-h room temperature incubation, time-resolved fluorescence intensity was measured using the Envision (Perkin-Elmer) at 400 nm excitation and dual emission at 590 nm and 665 nm. A calibration curve was constructed with an external cAMP standard at concentrations ranging from 1 μM to 0.1 pM by plotting the fluorescent intensity ratio from 665 nm emission to the intensity from the 590 nm emission against cAMP concentrations. The potency and activity of a compound to inhibit cAMP production was then determined by fitting to a 4-parametric logistic equation from a plot of cAMP level versus compound concentrations.
A general note: cAMP levels reflect the balance of adenylyl cyclase and phosphodiesterase activity.

For the next assay, the target named is human FPR1 (Homo sapiens (Human), UniProt P21462). As to the kind of experiment: FPR1 cyclic adenosine monophosphate (cAMP) assay. The class given is cell-based. To be noted: CHO cells overexpressing human FPR1; forskolin 10 μM, IBMX 200 μM; inhibition of cAMP production, HTRF; read-out: hFPR1 cAMP EC50. The procedure: as §1, with “After a 1-h room temperature incubation, time-resolved fluorescence intensity was measured using the Envision (Perkin-Elmer) at 400 nm excitation and dual emission at 590 nm and 665 nm. A calibration curve was constructed with an external cAMP standard at concentrations ranging from 1 μM to 0.1 pM by plotting the fluorescent intensity ratio from 665 nm emission to the intensity from the 590 nm emission against cAMP concentrations.” left out

The structures appear in SMILES notation.

Sequence of human FPR2 (P25090 whole entry): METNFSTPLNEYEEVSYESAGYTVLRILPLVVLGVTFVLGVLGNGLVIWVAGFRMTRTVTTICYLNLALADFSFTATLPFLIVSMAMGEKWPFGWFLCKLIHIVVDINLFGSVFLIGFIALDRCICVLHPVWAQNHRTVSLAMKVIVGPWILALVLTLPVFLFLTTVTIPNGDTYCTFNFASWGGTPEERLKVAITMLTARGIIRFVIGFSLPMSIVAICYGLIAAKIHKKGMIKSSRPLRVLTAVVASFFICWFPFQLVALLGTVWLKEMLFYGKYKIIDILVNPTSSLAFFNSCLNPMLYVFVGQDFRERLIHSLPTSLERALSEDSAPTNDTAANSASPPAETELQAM
Sequence of human FPR1 (P21462 whole entry): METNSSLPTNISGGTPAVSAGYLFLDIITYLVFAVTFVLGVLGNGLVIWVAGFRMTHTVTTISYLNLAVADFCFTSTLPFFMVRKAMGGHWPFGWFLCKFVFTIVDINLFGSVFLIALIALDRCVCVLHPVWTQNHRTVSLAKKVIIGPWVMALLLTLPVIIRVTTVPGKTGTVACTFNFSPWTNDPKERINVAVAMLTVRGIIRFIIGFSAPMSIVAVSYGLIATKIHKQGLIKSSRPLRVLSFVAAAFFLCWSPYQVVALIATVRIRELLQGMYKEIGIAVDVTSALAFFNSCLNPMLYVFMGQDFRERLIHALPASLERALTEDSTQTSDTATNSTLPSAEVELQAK

In general, EC50 refers to the concentration needed to bring the measured effect to its halfway point. On to `CS(=O)(=O)Nc1ccccc1-c1ccc(N2CC[C@@H](NC(=O)Nc3ccc(C(F)(F)F)cc3F)C2=O)c(F)c1F` [Example 33], for which the EC50 was 1.1 nM on human FPR2 and 470 nM on human FPR1.
Take `COc1c(-c2ccccc2NS(C)(=O)=O)ccc(N2CC[C@@H](NC(=O)Nc3ccc(Cl)cc3F)C2=O)c1F` [Example 34]: the EC50 at human FPR2 is 4.1 nM; at human FPR1 it was 26 nM.
Consider `COc1c(N2CC[C@@H](NC(=O)Nc3ccc(Cl)cc3F)C2=O)ccc(-c2ccccc2NS(C)(=O)=O)c1F` [Example 36], for which the figures for the EC50 at human FPR2 and at human FPR1 were 4.7 nM and 69 nM, respectively.
Taken in the same sequence, the figures for `CC(C)c1cc(-c2ccccc2NS(C)(=O)=O)ccc1N1CC[C@@H](NC(=O)Nc2ccc(C(F)(F)F)cc2F)C1=O` [Example 37] were 1.4 nM and 170 nM.
Take `CC(C)c1cc(-c2ccccc2CO)ccc1N1CC[C@@H](NC(=O)Nc2ccc(Cl)cc2F)C1=O` [Example 38]: the half-maximal effective concentration (EC50) was determined as 3.5 nM at human FPR2 and 42 nM on human FPR1.
Turning to `CS(=O)(=O)c1ccccc1-c1ccc(N2C(=O)[C@H](NC(=O)Nc3ccc(C(F)(F)F)cc3F)C[C@H]2CO)c(F)c1F` [Example 39], the EC50 on human FPR2 is 0.58 nM; on human FPR1, 57 nM.
As for `CC(C)c1cc(-c2ccccc2S(C)(=O)=O)ccc1N1CC[C@@H](NC(=O)Nc2ccc(Cl)cc2F)C1=O` [Example 40], the EC50 was found to be 4.6 nM on human FPR2 and 50 nM at human FPR1.
In the case of `O=C(Nc1ccc(C(F)(F)F)cc1)N[C@@H]1CCN(c2ccc(-c3ccccc3CO)c(F)c2F)C1=O` [Example 41], the EC50 on human FPR2 was 3.6 nM; at human FPR1, 500 nM.
On to `CS(=O)(=O)c1ccccc1-c1ccc(N2C(=O)[C@H](NC(=O)Nc3ccc(Cl)cc3F)C[C@H]2CO)c(F)c1F` [Example 42], for which the values for the EC50 on human FPR2 and on human FPR1 were 1 nM and 220 nM, respectively.
The like results for `CS(=O)(=O)Nc1ccccc1-c1ccc(N2CC[C@@H](NC(=O)Nc3ccc(C(F)(F)F)cc3F)C2=O)c(C2CC2)c1` [Example 43] were, in that order, 3.3 nM and 120 nM.
The like results for `CC(=O)NC(C)c1cccc(-c2ccc(N3CC[C@@H](NC(=O)Nc4ccc(Cl)cc4F)C3=O)c(F)c2F)c1` (stereo partly shown) [Example 44] were, in that order, 43 nM and 450 nM.
`CC(C)c1cc(-c2ccccc2P(C)(C)=O)ccc1N1CC[C@@H](NC(=O)Nc2ccc(Cl)cc2F)C1=O` [Example 45]: the figures for the EC50 on human FPR2 and on human FPR1 were 3 nM and 140 nM, respectively.
The like results for `CC(C)c1cc(-c2cccnc2NS(C)(=O)=O)ccc1N1CC[C@@H](NC(=O)Nc2ccc(Cl)cc2F)C1=O` [Example 47] were, in that order, 2.8 nM and 64 nM.
The like results for `CS(=O)(=O)Nc1ncccc1-c1ccc(N2CC[C@@H](NC(=O)Nc3ccc(Cl)cc3F)C2=O)c(C2CC2)c1` [Example 48] were, in that order, 3.7 nM and 110 nM.
For the compound `CP(C)(=O)c1ccccc1-c1ccc(N2CC[C@@H](NC(=O)Nc3ccc(Cl)cn3)C2=O)c(F)c1F` [Example 49], the figures for the EC50 at human FPR2 and on human FPR1 were 5.6 nM and 3400 nM, respectively.
Regarding `CC(N)c1cccc(-c2ccc(N3CC[C@@H](NC(=O)Nc4ccc(Cl)cc4F)C3=O)c(F)c2F)c1` (stereo partly shown) [Example 50], the EC50 at human FPR2 was 14 nM; at human FPR1, 640 nM.
The like results for `CP(C)(=O)c1ccccc1-c1ccc(N2CC[C@@H](NC(=O)Nc3ccc(OC(F)(F)F)cc3)C2=O)c(F)c1F` [Example 51] were, in that order, 8.2 nM and 1300 nM.
As to `CS(=O)(=O)c1ccccc1-c1cc(F)c(N2CC[C@@H](NC(=O)Nc3ccc(Cl)cc3F)C2=O)c(F)c1` [Example 52], the EC50 on human FPR2 was determined as 10 nM; on human FPR1, 1100 nM.
Taken in the same sequence, the figures for `CP(C)(=O)c1ccccc1-c1cc(F)c(N2CC[C@@H](NC(=O)Nc3ccc(Cl)cc3F)C2=O)c(F)c1` [Example 53] were 7.8 nM and 2700 nM.
Regarding `COc1ccc(NC(=O)N[C@@H]2CCN(c3ccc(-c4ccccc4S(C)(=O)=O)c(F)c3F)C2=O)cc1` [Example 54], the EC50 on human FPR2 amounted to 5.5 nM; at human FPR1 it was 900 nM.
